Several values for one entry are separate records, joined by “and”; a condition that tells them apart may be missing. Equal entries are not always repeated.
Test: molar heat capacity at constant pressure
Settings: 101.33 kPa, Small sample (50 mg) DSC

O=P([O-])([O-])[O-].[Co+2].[Cs+] [cesium cobalt(II) phosphate]
Settings | molar heat capacity at constant pressure
451.9 K, Crystal 3 | 167.95 J/K/mol
454.4 K, Crystal 3 | 167.95 J/K/mol
456.9 K, Crystal 3 | 168.78 J/K/mol
459.4 K, Crystal 3 | 169.62 J/K/mol
460 K, Crystal 3 | 169.45 J/K/mol
461.9 K, Crystal 3 | 170.45 J/K/mol
464.4 K, Crystal 3 | 170.45 J/K/mol
466.9 K, Crystal 3 | 171.28 J/K/mol
469.4 K, Crystal 3 | 172.11 J/K/mol
470 K, Crystal 3 | 172.44 J/K/mol
471.9 K, Crystal 3 | 172.94 J/K/mol
474.4 K, Crystal 3 | 173.77 J/K/mol
476.9 K, Crystal 3 | 174.6 J/K/mol
479.4 K, Crystal 3 | 176.27 J/K/mol
480 K, Crystal 3 | 175.02 J/K/mol
481.9 K, Crystal 3 | 182.92 J/K/mol
484.4 K, Crystal 3 | 205.37 J/K/mol
486.9 K, Crystal 2 | 241.12 J/K/mol and 177.1 J/K/mol
486.9 K, Crystal 3 | 177.1 J/K/mol and 241.12 J/K/mol
489.8 K, Crystal 2 | 196.22 J/K/mol
490 K, Crystal 2 | 176.68 J/K/mol
491.9 K, Crystal 2 | 182.09 J/K/mol
494.4 K, Crystal 2 | 177.93 J/K/mol
496.9 K, Crystal 2 | 177.1 J/K/mol
499.4 K, Crystal 2 | 177.93 J/K/mol
500 K, Crystal 2 | 177.51 J/K/mol
501.9 K, Crystal 2 | 178.76 J/K/mol
504.4 K, Crystal 2 | 181.26 J/K/mol
506.9 K, Crystal 2 | 185.41 J/K/mol
509.4 K, Crystal 2 | 192.06 J/K/mol
510 K, Crystal 2 | 177.51 J/K/mol
511.6 K, Crystal 2 | 215.34 J/K/mol
514.4 K, Crystal 1 | 253.59 J/K/mol and 177.02 J/K/mol
514.4 K, Crystal 2 | 253.59 J/K/mol and 177.76 J/K/mol
517.3 K, Crystal 1 | 198.72 J/K/mol
518.6 K, Crystal 1 | 188.74 J/K/mol
520 K, Crystal 1 | 177.02 J/K/mol
520.2 K, Crystal 1 | 184.58 J/K/mol
523.1 K, Crystal 1 | 181.26 J/K/mol
526.9 K, Crystal 1 | 178.76 J/K/mol
529.4 K, Crystal 1 | 177.93 J/K/mol
530 K, Crystal 1 | 177.02 J/K/mol
531.9 K, Crystal 1 | 177.1 J/K/mol
534.4 K, Crystal 1 | 177.1 J/K/mol
536.9 K, Crystal 1 | 177.1 J/K/mol
539.4 K, Crystal 1 | 177.1 J/K/mol
540 K, Crystal 1 | 177.02 J/K/mol
541.9 K, Crystal 1 | 177.1 J/K/mol
544.4 K, Crystal 1 | 177.1 J/K/mol
546.9 K, Crystal 1 | 177.1 J/K/mol
549.4 K, Crystal 1 | 177.1 J/K/mol
550 K, Crystal 1 | 177.02 J/K/mol
551.9 K, Crystal 1 | 177.1 J/K/mol
554.4 K, Crystal 1 | 177.1 J/K/mol
556.9 K, Crystal 1 | 177.1 J/K/mol
559.4 K, Crystal 1 | 177.1 J/K/mol
560 K, Crystal 1 | 177.02 J/K/mol
561.9 K, Crystal 1 | 177.1 J/K/mol
564.4 K, Crystal 1 | 177.1 J/K/mol
566.9 K, Crystal 1 | 177.1 J/K/mol
569.4 K, Crystal 1 | 177.1 J/K/mol
570 K, Crystal 1 | 177.02 J/K/mol
571.9 K, Crystal 1 | 177.1 J/K/mol
574.4 K, Crystal 1 | 177.1 J/K/mol
576.9 K, Crystal 1 | 177.1 J/K/mol
579.4 K, Crystal 1 | 177.1 J/K/mol
580 K, Crystal 1 | 177.02 J/K/mol
581.9 K, Crystal 1 | 177.1 J/K/mol
584.4 K, Crystal 1 | 177.1 J/K/mol
586.9 K, Crystal 1 | 177.1 J/K/mol
589.4 K, Crystal 1 | 177.1 J/K/mol
590 K, Crystal 1 | 177.02 J/K/mol
591.9 K, Crystal 1 | 177.1 J/K/mol
594.4 K, Crystal 1 | 177.1 J/K/mol
596.9 K, Crystal 1 | 177.1 J/K/mol
599.4 K, Crystal 1 | 177.1 J/K/mol
600 K, Crystal 1 | 177.02 J/K/mol
601.9 K, Crystal 1 | 177.1 J/K/mol
604.4 K, Crystal 1 | 177.1 J/K/mol
606.9 K, Crystal 1 | 177.1 J/K/mol
609.4 K, Crystal 1 | 177.1 J/K/mol
610 K, Crystal 1 | 177.02 J/K/mol
611.9 K, Crystal 1 | 177.93 J/K/mol
614.4 K, Crystal 1 | 177.93 J/K/mol
616.9 K, Crystal 1 | 177.93 J/K/mol
619.4 K, Crystal 1 | 177.93 J/K/mol
620 K, Crystal 1 | 177.02 J/K/mol
621.9 K, Crystal 1 | 177.93 J/K/mol
624.4 K, Crystal 1 | 177.93 J/K/mol
626.9 K, Crystal 1 | 177.93 J/K/mol
629.4 K, Crystal 1 | 177.93 J/K/mol
630 K, Crystal 1 | 177.02 J/K/mol
631.9 K, Crystal 1 | 177.93 J/K/mol
634.4 K, Crystal 1 | 177.93 J/K/mol
636.9 K, Crystal 1 | 177.93 J/K/mol
639.4 K, Crystal 1 | 177.93 J/K/mol
640 K, Crystal 1 | 177.02 J/K/mol
641.9 K, Crystal 1 | 177.93 J/K/mol
644.4 K, Crystal 1 | 177.93 J/K/mol
646.9 K, Crystal 1 | 177.93 J/K/mol
649.4 K, Crystal 1 | 177.93 J/K/mol
650 K, Crystal 1 | 177.02 J/K/mol

— the NIST ThermoML archive (doi:10.1016/j.jct.2015.12.017)
